Measured values from US4532258A, “Certain cyclopropane carboxylic acid esters and their pesticidal use” (priority 1979, dated 1985).
In brackets after ≈: the same amount, converted by molar mass.

Assays:
[1] = Fish toxicity test; type: in vivo; conditions: guppy, water, female guppies, 20° C., 50% killed, read-out: TLm (medium tolerance limit)
Protocol: The mixture was stirred well to prepare a test water. Ten female guppies from 3 to 4 months of age were released into the test water and maintained at 20° C. The concentration of the test compound at which 50% of the guppies were killed during the ensuring 48 hours was determined. [This concentration is referred to as TLm (medium tolerance limit, ppm)].

[2] = Light stability test (residue after exposure to ultraviolet light); type: physicochemical; conditions: UV 3600 Å, 31°-35° C.
Protocol: Into 2.0 ml of acetone were dissolved 80 mg of each test compound. A 5 μl portion of the solution was taken and spread on a glass plate (Micro Standard Cover Glass, 18 m/m No. 1, 200 pcs, Matsunami Glass Ind., Ltd.) and the acetone was evaporated. The specimen was exposed to ultraviolet light from a fluorescent lamp (Tokyo Shibaura Electric Co., Ltd., FL20BL, glow-type, 100 V, 24.5 W, wavelength=3600 Å) which was fixed just above the specimen at a distance of 11 cm at a temperature of 31°-35° C. for a predetermined exposure time. The test liquid was washed away with 1.0 ml of methanol containing 0.04% of dioctyl phthalate as an internal reference and high-speed liquid chromatography was carried out on the washings to determine the residual amount of the test compound.

Work on `CC1(C)[C@H](CC(Cl)(Cl)Cl)[C@H]1C(=O)OC(C#N)c1cccc(Oc2ccccc2)c1` (relative stereo) [(7) [Trans-isomer]] yielded an LC50 at 48 h [1] of 0.5 to 10 µg/mL (≈ 1.1 to 22.1 µM).
`C#CC(OC(=O)[C@@H]1[C@H](CC(C)(Cl)Cl)C1(C)C)c1cccc(Oc2ccccc2)c1` (relative stereo) [(13) [Cis-isomer]] gave an LC50 at 48 h [1] of at least 10 µg/mL.
Work on `CC1(C)[C@H](C(=O)OC(C(N)=S)c2cccc(Oc3ccccc3)c2)[C@@H]1CC(Cl)(Cl)Cl` (relative stereo) [(27) [Cis-isomer]] yielded an LC50 at 48 h [1] of at least 10 µg/mL.
For `CC1(C)C(CC(Cl)(Cl)Cl)C1C(=O)OC(C#N)c1cccc(OC=C(Cl)Cl)c1` (stereo not drawn) [(34) [Mixture]], the “Residue (%)” value ([2]; exposure time 3.5 hrs.) was 100%, the “Residue (%)” value ([2]; exposure time 3 days) was 88% and the “Residue (%)” value ([2]; exposure time 5 days) was 44%.
In the case of `C#CC(OC(=O)[C@@H]1[C@@H](CC(Cl)(Cl)Cl)C1(C)C)c1cccc(Oc2ccccc2)c1` (relative stereo) [(11) [Trans-isomer]], the LC50 at 48 h [1] is reported as at least 10 µg/mL.
In the case of `C=CCC1=C(C)C(OC(=O)C2C(C=C(C)C)C2(C)C)CC1=O` (stereo not drawn) [Allethrin, reference compound], the “Residue (%)” value ([2]; exposure time 3.5 hrs.) is reported as 14% and the “Residue (%)” value ([2]; exposure time 3 days) is reported as 0%.
